Values joined by “and” are separate entries in the source; they are usually repeats but may differ in a detail not shown here. Equal entries are not always repeated.
target: T1, sGC enzyme (Homo sapiens, UniProt Q02108+Q02153); test: cGMP GloSensor cell-based assay, 384-well format (Example 2B); conditions: HEK293 GloSensor 40F cGMP cells, 10 μM DETA-NONOate; 50% of high control response (Compound Y); read-out: sGC_HEK_GloSensor EC50/IC50 Abs (Norm) (nM) Binned
T1 construct: host or cells: HEK293 expressing GloSensor 40F cGMP
T1 sequence (Q02108 1-690): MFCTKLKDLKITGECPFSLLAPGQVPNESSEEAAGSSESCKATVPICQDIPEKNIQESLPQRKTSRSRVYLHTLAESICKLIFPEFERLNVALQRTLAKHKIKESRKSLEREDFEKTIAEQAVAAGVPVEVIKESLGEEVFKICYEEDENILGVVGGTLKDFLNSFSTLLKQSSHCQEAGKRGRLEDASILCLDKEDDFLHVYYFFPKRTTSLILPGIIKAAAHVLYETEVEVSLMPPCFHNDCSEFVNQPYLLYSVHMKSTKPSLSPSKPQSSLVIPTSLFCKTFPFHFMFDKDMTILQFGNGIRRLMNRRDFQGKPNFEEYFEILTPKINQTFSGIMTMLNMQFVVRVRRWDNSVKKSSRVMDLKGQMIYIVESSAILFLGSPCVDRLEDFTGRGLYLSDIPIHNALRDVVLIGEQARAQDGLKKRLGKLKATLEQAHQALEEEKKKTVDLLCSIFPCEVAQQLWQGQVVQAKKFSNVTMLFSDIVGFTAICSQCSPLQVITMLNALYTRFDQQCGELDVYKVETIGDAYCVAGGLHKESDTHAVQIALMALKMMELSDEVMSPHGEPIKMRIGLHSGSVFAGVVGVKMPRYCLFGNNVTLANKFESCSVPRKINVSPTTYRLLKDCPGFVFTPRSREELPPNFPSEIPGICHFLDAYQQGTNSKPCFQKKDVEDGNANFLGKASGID
T1 sequence (Q02153 1-619): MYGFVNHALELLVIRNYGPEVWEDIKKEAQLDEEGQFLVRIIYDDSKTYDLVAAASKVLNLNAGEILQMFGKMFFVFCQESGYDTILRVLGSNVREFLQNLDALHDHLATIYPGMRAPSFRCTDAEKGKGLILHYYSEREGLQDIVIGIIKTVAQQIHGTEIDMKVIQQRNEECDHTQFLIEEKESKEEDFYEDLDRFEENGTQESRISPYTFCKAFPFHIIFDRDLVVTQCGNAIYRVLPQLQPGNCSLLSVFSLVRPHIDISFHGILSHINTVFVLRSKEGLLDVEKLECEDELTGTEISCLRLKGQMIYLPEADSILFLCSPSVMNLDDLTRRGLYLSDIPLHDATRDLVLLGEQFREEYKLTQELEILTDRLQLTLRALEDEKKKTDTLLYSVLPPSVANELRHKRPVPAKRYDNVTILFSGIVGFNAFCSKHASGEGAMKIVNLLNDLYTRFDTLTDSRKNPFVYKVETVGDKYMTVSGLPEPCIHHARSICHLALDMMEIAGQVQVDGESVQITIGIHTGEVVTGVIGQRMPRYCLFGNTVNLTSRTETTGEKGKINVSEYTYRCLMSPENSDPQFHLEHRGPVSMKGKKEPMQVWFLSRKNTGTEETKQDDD
Method: Data were normalized to a high control using the following equation: 100*(Sample—Low Control)/(High Control—Low Control), where the low control is the average of 16 samples treated with 1% DMSO, and the high control is the average of 16 samples treated with 30 μM of Compound Y depicted below. Data were fit using a 4-parameter fit (log(agonist) vs. response variable slope) using GraphPad Prism Software v.5. n=2 for all compounds. […] Compounds failing to elicit a minimum response of 50% are reported as >30 μM. For compounds run in duplicate or n higher than 2, the result herein given is the geometric mean of the several results obtained.
Human embryonic kidney cells (HEK293) cells expressing GloSensor™ 40F cGMP (Part No: CS182801, Promega) were used to evaluate the activity of test compounds. The luminescent biosensors (engineered luciferase) that were incorporated into these cells detect cGMP formed by the compounds stimulating the sGC enzyme and emit luminescence.
cGMP GloSensor cells were maintained in Dulbecco's Modification of Eagle's Medium (DMEM) supplemented with fetal bovine serum (FBS) (10% final) and hygromycine (200 μg/ml). The day before assay, cells were plated in DMEM with 10% FBS in a 50 μL volume at a density of 1.5×10^4 cells/well in a poly-D-lysine coated 384-well flat white-bottom plate (Corning Cat No 35661). Cells were incubated overnight at 37° C. in a humidified chamber with 5% CO2. The next day, medium was removed and cells were replaced with 40 μl/well of GloSensor™, […] (Promega Cat No E1291). Cells were treated for 90 minutes at 25° C. to allow the substrate to equilibrate in the cells. Test compounds and Diethylenetriamine NONOate (DETA-NONOate) was diluted to […] in serum-free CO2 independent medium and serally diluted at 4× dilutions to create 5× dose curve from which 10 ul was added to the wells (x uM concentration for test compound solution and 10 μM concentration for DETA-NONOate solution; wherein x is one of the following final concentrations).
For the kinetics studies, luminescense was measured right away for 0.2 sec per well with Envision (Perkin Elmer model No). For endpoint SAR screening, data were collected after 55 min incubation at room temperature.
Data analysis was carried out as indicated above in Example 2A.

| SMILES | EC50 |
| --- | --- |
| COc1cc(-c2ncc3c(n2)NC(=O)C3(C)C)nn1Cc1cccc(F)c1 [Compound I-55] | < 100 nM |
| CC1(C)C(=O)Nc2nc(-c3cc(OC(F)F)n(Cc4ccccc4F)n3)nc(O)c21 [Compound I-32] | 100 to 1000 nM |
| CC(C)Oc1cc(-c2ncc3c(n2)NC(=O)C3(C)C)nn1Cc1ccccc1F [Compound I-36] | > 1000 nM |
| COc1cc(-c2ncc3c(n2)NC(=O)C3(C)C)nn1Cc1ccccc1 [Compound I-52] | 100 to 1000 nM |
| COc1cc(-c2ncc3c(n2)NC(=O)C3(C)C)nn1Cc1ccc(C)cc1 [Compound I-58] | < 100 nM |
| COc1c(C)c(-c2nc(N)c3c(n2)NC(=O)C3(C)C)nn1Cc1ccccc1F [Compound I-41] | 100 to 1000 nM |
| Cn1cc(-c2nc(N)c3c(n2)NC(=O)C3(C)C)nc1Cc1ccccc1F [Compound I-12] | > 1000 nM and < 100 nM |
| COc1cc(-c2ncc3c(n2)NC(=O)C3(C)C)nn1Cc1ccccc1F [Compound I-24] | 100 to 1000 nM |
| COc1cc(-c2ncc3c(n2)NC(=O)C3(C)C)nn1Cc1ccccc1Cl [Compound I-56] | 100 to 1000 nM |
| COc1cn(-c2nnc3c(n2)NC(=O)C3(C)C)nc1Cc1ccccc1F [Compound I-67] | 100 to 1000 nM |
| COc1cn(-c2nc(O)c3c(n2)NC(=O)C3(C)C)nc1Cc1ccccc1F [Compound I-83] | < 100 nM |
| CC1(C)C(=O)Nc2nc(-c3ccn(Cc4ccccc4F)n3)nc(NCC3CC3)c21 [Compound I-75] | 100 to 1000 nM |
| COc1cn(-c2ncc3c(n2)NC(=O)C3(C)C)nc1Cc1ccccc1F [Compound I-38] | < 100 nM |
| COc1cc(-c2ncc3c(n2)N(CC2CC2)C(=O)C3(C)C)nn1Cc1ccccc1F [Compound I-33] | > 1000 nM |
| CC1(C)C(=O)Nc2nc(-c3cc(OC(F)F)n(Cc4ccccc4F)n3)ncc21 [Compound I-31] | 100 to 1000 nM |
| CC(=O)c1cc(-c2nnc3c(n2)NC(=O)C3(C)C)nn1Cc1ccccc1F [Compound I-70] | 100 to 1000 nM |
| Cc1cn(-c2nc(N)c3c(n2)NC(=O)C3(C)C)nc1Cc1ccccc1F [Compound I-84, 4-amino-2-(3-(2-fluorobenzyl)-4-methyl-1H-pyrazol-1-yl)-5,5-dimethyl-5H-pyrrolo[2,3-d]pyrimidin-6(7H)-one] | < 100 nM |
| Cc1cn(-c2ncc3c(n2)NC(=O)C3(C)C)nc1Cc1ccccc1F [Compound I-85] | 100 to 1000 nM |
| COc1c(C)c(-c2nc(O)c3c(n2)NC(=O)C3(C)C)nn1Cc1ccccc1F [Compound I-42] | > 1000 nM |
| COc1c(Cl)c(-c2ncc3c(n2)NC(=O)C3(C)C)nn1Cc1ccccc1F [Compound I-44] | < 100 nM |
| COc1cc(-c2nc(O)c3c(n2)NC(=O)C3(C)C)nn1Cc1ccccc1F [Compound I-28] | 100 to 1000 nM |
| COc1c(C)c(-c2ncc3c(n2)NC(=O)C3(C)C)nn1Cc1ccccc1F [Compound I-43] | 100 to 1000 nM |

| SMILES | EC50 |
| --- | --- |
| CC1(C)C(=O)Nc2nc(-n3cc(O)c(Cc4ccccc4F)n3)ncc21 [Compound I-37] | > 1000 nM |
| CC1(C)C(=O)Nc2nc(-n3cc(-c4ccon4)c(Cc4ccccc4F)n3)nc(N)c21 [Compound I-80, 4-amino-2-(3-(2-fluorobenzyl)-4-(isoxazol-3-yl)-1H-pyrazol-1-yl)-5,5-dimethyl-5H-pyrrolo[2,3-d]pyrimidin-6(7H)-one] | < 100 nM |
| COc1cc(-c2ncc3c(n2)NC(=O)C3(C)C)nn1Cc1ccc(C)cc1F [Compound I-63] | < 100 nM |
| COc1cc(-c2ncc3c(n2)N(C)C(=O)C3(C)C)nn1Cc1ccccc1F [Compound I-26] | > 1000 nM |
| COc1cc(-c2ncc3c(n2)N(C(=O)OC(C)(C)C)C(=O)C3(C)C)nn1Cc1ccccc1 [Compound I-54, 2-(1-benzyl-5-methoxy-1H-pyrazol-3-yl)-5,5-dimethyl-6-oxo-5H-pyrrolo-[2,3-d]pyrimidine-7(6H)-carboxylate] | 100 to 1000 nM |
| COc1cc(-c2ncc3c(n2)NC(=O)C3(C)C)nn1Cc1cccc(C#N)c1 [Compound I-60] | 100 to 1000 nM |
| COc1cn(-c2nc(N)c3c(n2)NC(=O)C3(C)C)nc1Cc1ccccc1F [Compound I-82, 4-amino-2-(3-(2-fluorobenzyl)-4-methoxy-1H-pyrazol-1-yl)-5,5-dimethyl-5H-pyrrolo[2,3-d]pyrimidin-6(7H)-one] | < 100 nM |
| CC1(C)C(=O)Nc2nc(-c3ccn(Cc4ccccc4F)n3)nc(N3CCOCC3)c21 [Compound I-76] | 100 to 1000 nM |
| Cc1nc(-c2nc(O)c3c(n2)NC(=O)C3(C)C)nn1Cc1ccccc1F [Compound I-88] | > 1000 nM |
| COc1cc(-c2ncc3c(n2)NC(=O)C3(C)C)nn1Cc1ccc(C(F)(F)F)c(F)c1 [Compound I-64] | > 1000 nM |
| Cc1cn(-c2nc(O)c3c(n2)NC(=O)C3(C)C)nc1Cc1ccccc1F [Compound I-86] | 100 to 1000 nM |
| COc1nc(-c2ccn(Cc3ccccc3F)n2)nc2c1C(C)(C)C(=O)N2 [Compound I-78] | > 1000 nM |
| COc1c(Br)c(-c2ncc3c(n2)NC(=O)C3(C)C)nn1Cc1ccccc1F [Compound I-40] | < 100 nM |
| COc1ccc(CN2C(=O)C(C)(C)c3nnc(-n4cc(OC)c(Cc5ccccc5F)n4)nc32)cc1 [Compound I-91, 3-(3-(2-fluorobenzyl)-4-methoxy-1H-pyrazol-1-yl)-5-(4-methoxybenzyl)-7,7-dimethyl-5H-pyrrolo[2,3-e][1,2,4]triazin-6(7H)-one] | > 30000 nM |
| CC1(C)C(=O)Nc2nc(-n3cc(-c4ccon4)c(Cc4ccccc4F)n3)ncc21 [Compound I-81, 2-(3-(2-fluorobenzyl)-4-(isoxazol-3-yl)-1H-pyrazol-1-yl)-5,5-dimethyl-5H-pyrrolo[2,3-d]pyrimidin-6(7H)-one] | 100 to 1000 nM |
| CC(=O)c1cc(-c2ncc3c(n2)NC(=O)C3(C)C)nn1Cc1ccccc1F [Compound I-25] | 100 to 1000 nM |
| COc1cc(-c2nc(N)c3c(n2)NC(=O)C3(C)C)nn1Cc1cncnc1 [Compound I-92, 4-amino-2-(5-methoxy-1-(pyrimidin-5-ylmethyl)-1H-pyrazol-3-yl)-5,5-dimethyl-5H-pyrrolo[2,3-d]pyrimidin-6(7H)-one] | > 1000 nM |
| COc1cc(-c2ncc3c(n2)NCC3(C)C)nn1Cc1ccccc1F [Compound I-27] | 100 to 1000 nM |
| Cc1nc(-c2ncc3c(n2)NC(=O)C3(C)C)nn1Cc1ccccc1F [Compound I-89] | > 1000 nM |
| Cn1cc(-c2ncc3c(n2)NC(=O)C3(C)C)nc1Cc1ccccc1F [Compound I-66] | > 1000 nM |
| COc1cc(-c2ncc3c(n2)NC(=O)C3(C)C)nn1Cc1ccc(C(F)(F)F)cc1 [Compound I-62] | > 1000 nM |
| CCOc1cc(-c2ncc3c(n2)NC(=O)C3(C)C)nn1Cc1ccccc1F [Compound I-34] | > 1000 nM |

— US10844064B2, “sGC stimulators” (Cyclerion Therapeutics, Inc., priority 2014, dated 2020)
